Test [1] concerns the target T1, RpfB (catalytic domain, residues 280-362) (Mycobacterium tuberculosis, UniProt P9WG29). Briefly: release of fluorescent fragments from FITC-labelled peptidoglycan. The test is classed as biochemical. The conditions noted are these: read-out: IC50 Rpf-hydrolysis of PG, μM / M. tuberculosis. The text has this: release of fluorescent fragments from FITC-labelled peptidoglycan on RpfB (catalytic domain, residues 280-362)

Test [2] has as its target T1, RpfB (catalytic domain, residues 280-362). The test is described as follows: intrinsic tryptophan fluorescence quenching (Stern-Volmer). The test is classed as binding. The conditions noted are these: 50 mM phosphate buffer, pH 6.0; room temperature; RpfB 25.6 μg/ml; excitation 280 nm.

The results in this text go back to article PMC5667462, “Benzoylphenyl thiocyanates are new, effective inhibitors of the mycobacterial resuscitation promoting factor B protein” (Annals of Clinical Microbiology and Antimicrobials, 2017).

T1 sequence (P9WG29 280-362): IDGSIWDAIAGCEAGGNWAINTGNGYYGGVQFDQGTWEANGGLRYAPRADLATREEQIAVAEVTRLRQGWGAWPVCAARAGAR

Regarding `N#CSc1cccc(C(=O)c2ccccc2)c1` [II, 3-Benzoylphenyl thiocyanate], the IC50 in test [1] amounted to 1.7 ± 0.4 µM.

In the case of `N#CSc1ccc(C(=O)c2ccccc2)cc1` [III, 4-Benzoylphenyl thiocyanate], the IC50 in test [1] came to 1.2 ± 0.5 µM.

For `N#CSc1ccc(C(=O)c2ccc(SC#N)c([N+](=O)[O-])c2)cc1[N+](=O)[O-]` [IV, Bis(4-thiocyano-3-nitrophenyl)methanone], the IC50 in test [1] amounted to 5.8 ± 2 µM. Moreover, in test [2], the “intrinsic tryptophan fluorescence quenching (Stern-Volmer)” value is recorded as “confirmed by quenching of Rpf’s autofluorescence by the compound (IV)”.

Take `N#CSc1ccc(C(=O)c2ccc(SC#N)cc2)cc1` [V, Bis(4-thiocyanophenyl)methanone]: the IC50 in test [1] came out at 4.3 ± 2.4 µM.

In the case of `N#CSc1cccc(C(=O)c2cccc(SC#N)c2)c1` [VI, Bis(3-thiocyanophenyl)methanone], in test [1], the IC50 is 3.6 ± 1.2 µM.
